Measurements reported in PubChem BioAssay (NCI).
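A five-concentration, 48-hour dose response in 96-well plates underlies each endpoint, interpolated linearly between surrounding concentrations. GI50 is the concentration that inhibits growth by half. Definition used: TGI = concentration required for complete inhibition of growth.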

Key:
Test in all cases: growth of human tumour cells (NCI), 48 h
UO-31 renal = system: UO-31 renal
SK-MEL-2 melanoma = system: SK-MEL-2 melanoma
MCF7 breast = system: MCF7 breast
HL-60(TB) leukemia = system: HL-60(TB) leukemia
CCRF-CEM leukemia = system: CCRF-CEM leukemia
ACHN renal = system: ACHN renal
MALME-3M melanoma = system: MALME-3M melanoma
T-47D breast = system: T-47D breast
SK-MEL-28 melanoma = system: SK-MEL-28 melanoma
HS 578T breast = system: HS 578T breast
TK-10 renal = system: TK-10 renal
M14 melanoma = system: M14 melanoma
U251 CNS = system: U251 CNS
SK-MEL-5 melanoma = system: SK-MEL-5 melanoma
NCI-H23 lung = system: NCI-H23 lung
A498 renal = system: A498 renal
SF-295 CNS = system: SF-295 CNS
COLO 205 colon = system: COLO 205 colon
MDA-MB-435 = system: MDA-MB-435
HCT-116 colon = system: HCT-116 colon
RPMI-8226 leukemia = system: RPMI-8226 leukemia
CAKI-1 renal = system: CAKI-1 renal
786-0 renal = system: 786-0 renal
NCI/ADR-RES ovarian = system: NCI/ADR-RES ovarian
MDA-MB-231 breast = system: MDA-MB-231 breast
HCT-15 colon = system: HCT-15 colon
UACC-257 melanoma = system: UACC-257 melanoma
PC-3 prostate = system: PC-3 prostate
HT29 colon = system: HT29 colon
DU-145 prostate = system: DU-145 prostate
EKVX NSCLC = system: EKVX NSCLC
NCI-H226 lung = system: NCI-H226 lung
OVCAR-5 ovarian = system: OVCAR-5 ovarian
MOLT-4 leukemia = system: MOLT-4 leukemia
SF-539 CNS = system: SF-539 CNS
HCC-2998 colon = system: HCC-2998 colon
SN12C renal = system: SN12C renal
NCI-H522 lung = system: NCI-H522 lung
IGROV1 ovarian = system: IGROV1 ovarian
OVCAR-4 ovarian = system: OVCAR-4 ovarian
LOX IMVI melanoma = system: LOX IMVI melanoma
SW-620 colon = system: SW-620 colon
SNB-75 CNS = system: SNB-75 CNS
SF-268 CNS = system: SF-268 CNS
OVCAR-8 ovarian = system: OVCAR-8 ovarian
KM12 colon = system: KM12 colon
BT-549 breast = system: BT-549 breast
RXF 393 renal = system: RXF 393 renal
UACC-62 melanoma = system: UACC-62 melanoma
HOP-92 NSCLC = system: HOP-92 NSCLC
K-562 leukemia = system: K-562 leukemia
SNB-19 CNS = system: SNB-19 CNS
HOP-62 NSCLC = system: HOP-62 NSCLC
NCI-H460 lung = system: NCI-H460 lung
SK-OV-3 ovarian = system: SK-OV-3 ovarian

## C#Cc1nc(C(=O)NCCCCCCC(=O)NO)cs1
UO-31 renal
  GI50: 174 nM
  TGI: 332 nM
SK-MEL-2 melanoma
  GI50: 1250 nM
  TGI: 3540 nM
MCF7 breast
  GI50: 939 nM
  TGI: 7250 nM
HL-60(TB) leukemia
  GI50: 314 nM
  TGI: 805 nM
CCRF-CEM leukemia
  GI50: 284 nM
  TGI: 994 nM
ACHN renal
  GI50: 897 nM
  TGI: 2190 nM
MALME-3M melanoma
  GI50: 314 nM
  TGI: 1610 nM
T-47D breast
  GI50: 288 nM
  TGI: 1540 nM
SK-MEL-28 melanoma
  GI50: 1210 nM
  TGI: 5100 nM
HS 578T breast
  GI50: 718 nM
  TGI: 4050 nM
TK-10 renal
  GI50: 263 nM
  TGI: 1530 nM
M14 melanoma
  GI50: 1220 nM
  TGI: 4030 nM
U251 CNS
  GI50: 1120 nM
  TGI: 2390 nM
SK-MEL-5 melanoma
  GI50: 642 nM
  TGI: 2180 nM
NCI-H23 lung
  GI50: 780 nM
  TGI: 2220 nM
A498 renal
  GI50: 528 nM
  TGI: 1780 nM
SF-295 CNS
  GI50: 983 nM
  TGI: 2420 nM
COLO 205 colon
  GI50: 691 nM
  TGI: 2000 nM
MDA-MB-435
  GI50: 692 nM
  TGI: 3450 nM
HCT-116 colon
  GI50: 339 nM
  TGI: 1560 nM
RPMI-8226 leukemia
  GI50: 312 nM
  TGI: 1550 nM
CAKI-1 renal
  GI50: 997 nM
  TGI: 2310 nM
786-0 renal
  GI50: 294 nM
  TGI: 838 nM
NCI/ADR-RES ovarian
  GI50: 335 nM
  TGI: > 100000 nM
MDA-MB-231 breast
  GI50: 318 nM
  TGI: 1100 nM
HCT-15 colon
  GI50: 1470 nM
  TGI: 3840 nM
UACC-257 melanoma
  GI50: 393 nM
  TGI: 2840 nM
PC-3 prostate
  GI50: 1830 nM
  TGI: 10100 nM
HT29 colon
  GI50: 782 nM
  TGI: 2440 nM
DU-145 prostate
  GI50: 367 nM
  TGI: 1440 nM
EKVX NSCLC
  GI50: 1550 nM
  TGI: 3190 nM
NCI-H226 lung
  GI50: 1740 nM
  TGI: 6490 nM
OVCAR-5 ovarian
  GI50: 1030 nM
  TGI: 3580 nM
MOLT-4 leukemia
  GI50: 294 nM
  TGI: 1200 nM
SF-539 CNS
  GI50: 794 nM
  TGI: 2240 nM
HCC-2998 colon
  GI50: 1710 nM
  TGI: 4430 nM
SN12C renal
  GI50: 1620 nM
  TGI: 5250 nM
NCI-H522 lung
  GI50: 168 nM
  TGI: 353 nM
IGROV1 ovarian
  GI50: 572 nM
  TGI: 2150 nM
OVCAR-4 ovarian
  GI50: 1800 nM
  TGI: 5120 nM
LOX IMVI melanoma
  GI50: < 14.9 nM
  TGI: 53 nM
SW-620 colon
  GI50: 346 nM
  TGI: 1820 nM
SNB-75 CNS
  GI50: 714 nM
  TGI: 3340 nM
SF-268 CNS
  GI50: 1530 nM
  TGI: 3440 nM
OVCAR-8 ovarian
  GI50: 405 nM
  TGI: 2110 nM
KM12 colon
  GI50: 1390 nM
  TGI: 3600 nM
BT-549 breast
  GI50: 1470 nM
  TGI: 2850 nM
RXF 393 renal
  GI50: 392 nM
  TGI: 1390 nM
UACC-62 melanoma
  GI50: 433 nM
  TGI: 2050 nM
HOP-92 NSCLC
  GI50: 571 nM
  TGI: 1810 nM
K-562 leukemia
  GI50: 639 nM
  TGI: > 100000 nM
SNB-19 CNS
  GI50: 2210 nM
  TGI: 10000 nM
HOP-62 NSCLC
  GI50: 1120 nM
  TGI: 3070 nM
NCI-H460 lung
  GI50: 587 nM
  TGI: 7250 nM
SK-OV-3 ovarian
  GI50: 1470 nM
  TGI: 4010 nM
